Tests used:
Assay type in all cases: in vivo
[1] = tested on: cotton (GOSHI, Gossypium hirsutum L.); assay: Test A: field trial, preharvest application of harvest aids alone and with Compound 4 to cotton (cv. Fibermax FM 989 RR); settings: for Boll Opening (%) / Desiccation (%) / State of Defoliation (%): 841 g a.i./ha
Experimental: A field trial was conducted to evaluate the effects of mixtures of Compound 4 with commercial harvest aids on cotton (GOSHI, Gossypium hirsutum L.). Cotton seeds (cv. ‘Fibermax FM 989 RR’) were planted in mid spring season, 3.8 cm deep in a clay soil having 1.8% organic matter and a pH of 6.8. Plots were 9 m long by 3 m wide with rows spaced 96.5 cm apart. Seeds were spaced 10.2 cm apart within the rows. The field was managed using conventional tillage practices, and applications of herbicides and insecticides were used to maintain a healthy crop. The plots were arranged in a randomized complete block design with each treatment being replicated three times. Treatments were applied preharvest over the top of the crop in late summer, when approximately 65% of the bolls had opened, using a backpack sprayer delivering a spray volume of 140 L/ha using a pressure of 276 kPa. Treatments consisted of the commercial harvest aids tribufos and ethephon+AMADS alone and in combination with Compound 4, dissolved or suspended in water. The effects on the treated plants and untreated controls were recorded 4, 11 and 21 days after application. Plants were visually evaluated for harvest aid effects of boll opening, defoliation, desiccation, and whole plant (basal and terminal) regrowth inhibition. Results were calculated as the mean of the three replicates, based on a scale of 0 to 100 where 0 is no effect and 100 is complete expression of the effect.
(§1) Results for Tests A, B1 and B2 are given in Table A, B1 and B2 respectively. Plants were visually evaluated for harvest aid effects of boll opening, defoliation, desiccation, and whole plant (basal and terminal) regrowth inhibition. “State of Defoliation (%)” represents a visual rating at a given DAA of the overall reduction in foliage on treated plants in a plot. It is based on a scale of 0 to 100%, where 0 represents an amount of foliage similar to control plants, and 100 indicates no leaves present. Plant regrowth assessments at a given DAA were made relative to appropriate controls after effects of defoliation were observed. Regrowth of the basal (“plant stalk”, below the top 15.3 cm of the plants) and terminal (“plant terminal”, top 15.3 cm of the plants) portions of the plants were separately evaluated on a visual rating scale of 0 to 100%, where 0 indicates no regrowth, and 100 indicates complete regrowth. The regrowth evaluations involved overall assessment of renewed or continued growth and development, which included: node and internodal development and elongation, and leaf formation, development and growth. These regrowth evaluations were recorded as “Regrowth %” and subsequently converted in the tables to “Regrowth Inhibition (%)”, which was calculated as 100%−YT, where YT equals the mean Regrowth % of three replicates for a respective treatment.

[2] = tested on: cotton (GOSHI, Gossypium hirsutum L.); assay: Test B2: field trial, preharvest application of harvest aids alone and with Compound 4 to cotton (cv. DP 117BRIIRF); settings: for inhibition at 5 g/ha / inhibition at 10 g/ha / inhibition at 20 g/ha / inhibition at 1262 g/ha / inhibition at 421 g/ha: Gossypium hirsutum, 336 h
Experimental: A field trial was conducted to evaluate the effects of mixtures of Compound 4 with commercial harvest aids on cotton (GOSHI, Gossypium hirsutum L.). Delta and Pine Land Co. cotton seeds (cv. ‘DP 117BRIIRF’) were planted in mid spring season, 2.0-cm deep in a clay soil. Plots were 12.19 m long by 3.86 m wide with rows spaced 96.5 cm apart. The field was managed using conventional tillage practices, and applications of herbicides and insecticides were used to maintain a healthy crop. The plots were arranged in a randomized complete block design with each treatment being replicated four times. Treatments were applied preharvest over the top of the crop in late summer, when approximately 65% of the bolls had opened, using a tractor-mounted sprayer delivering a spray volume of 140.3 L/ha at a pressure of 193 kPa. Treatments consisted of the commercial harvest aids tribufos, ethephon, and ethephon+AMADS alone and in combination with Compound 4, dissolved or suspended in water. Plants were evaluated for harvest aid effects including defoliation and regrowth inhibition at 4, 7, and 14 DAA. Individual results were recorded and data reported as the means of the three replicates.
as §1

[3] = tested on: cotton (GOSHI, Gossypium hirsutum L.); assay: Test B1: field trial, preharvest application of harvest aids alone and with Compound 4 to cotton (cv. DP 434); settings: for inhibition at 5 g/ha / inhibition at 10 g/ha / inhibition at 20 g/ha / inhibition at 1262 g/ha / inhibition at 421 g/ha: Gossypium hirsutum
Experimental: A field trial was conducted to evaluate the effects of mixtures of Compound 4 with commercial harvest aids on cotton (GOSHI, Gossypium hirsutum L.). Delta and Pine Land Co. cotton seeds (cv. ‘DP 434’) were planted in mid spring season, 3.8-cm deep in a fine-texture loam soil comprising 40% sand, 36% silt, and 24% clay. Soil organic matter was 1.8%; pH was 6.6. Plots were 9.1 m long by 3.0 m wide with rows spaced 96.5 cm apart. Seeds were spaced 10.2 cm apart within the rows. The field was managed using conventional tillage practices, and applications of herbicides and insecticides were used to maintain a healthy crop. The plots were arranged in a randomized complete block design with each treatment being replicated four times. Treatments were applied preharvest over the top of the crop in late summer, when approximately 65% of the bolls had opened, using a tractor-mounted sprayer delivering a spray volume of 140 L/ha at a pressure of 241 kPa. Treatments consisted of the commercial harvest aids tribufos, ethephon, and ethephon+AMADS alone and in combination with Compound 4, dissolved or suspended in water. Plants were evaluated for harvest aid effects including defoliation and regrowth inhibition at 4, 7, 14, and/or 22 days after application (DAA). Individual results were recorded and data reported as the means of the three replicates.
as §1

[4] = treatments including Compound 4
[5] = plant terminal and plant stalk, 14 DAA

## COC(=O)c1nc(C2CC2)nc(N)c1Cl [Compound 4, methyl 6-amino-5-chloro-2-cyclopropyl-4-pyrimidinecarboxylate]
[1]; 11 days after application
  desiccation, combination with Compound 4 compared to ethephon+AMADS or tribufos alone: increased
[1]; 21 days after application
  defoliation, combination with Compound 4 compared to ethephon+AMADS or tribufos alone: dramatically increased
  regrowth inhibition, combination with Compound 4 compared to ethephon+AMADS or tribufos alone: dramatically increased
[1]; compared to the untreated plants
  boll opening effects of the commercial harvest aids in combination with Compound 4: did not interfere
[1]; [4]
  inhibition of basal and terminal regrowth: effective for inhibiting both basal and terminal regrowth
[2]; 5 g a.i./ha, 4 DAA
  State of Defoliation (%): 3%
[2]; 5 g a.i./ha, 7 DAA
  State of Defoliation (%): 4%
[2]; 5 g a.i./ha, 14 DAA
  State of Defoliation (%): 10%
[2]; 10 g a.i./ha, 4 DAA
  State of Defoliation (%): 3%
[2]; 10 g a.i./ha, 7 DAA
  State of Defoliation (%): 4%
[2]; 10 g a.i./ha, 14 DAA
  State of Defoliation (%): 11%
[2]; 20 g a.i./ha, 4 DAA
  State of Defoliation (%): 4%
[2]; 20 g a.i./ha, 7 DAA
  State of Defoliation (%): 9%
[2]; 20 g a.i./ha, 14 DAA
  State of Defoliation (%): 15%
[2]; 5 g a.i./ha, 14 DAA, read-out: Plant Stalk (Below 15.3-cm) Regrowth Inhibition (%)
  inhibition at 5 g/ha: 100%
[2]; 5 g a.i./ha, 14 DAA, read-out: Plant Terminal (Top 15.3-cm) Regrowth Inhibition (%)
  inhibition at 5 g/ha: 97%
[2]; 10 g a.i./ha, 14 DAA, read-out: Plant Stalk (Below 15.3-cm) Regrowth Inhibition (%)
  inhibition at 10 g/ha: 100%
[2]; 10 g a.i./ha, 14 DAA, read-out: Plant Terminal (Top 15.3-cm) Regrowth Inhibition (%)
  inhibition at 10 g/ha: 100%
[2]; 20 g a.i./ha, 14 DAA, read-out: Plant Stalk (Below 15.3-cm) Regrowth Inhibition (%)
  inhibition at 20 g/ha: 100%
[2]; 20 g a.i./ha, 14 DAA, read-out: Plant Terminal (Top 15.3-cm) Regrowth Inhibition (%)
  inhibition at 20 g/ha: 100%
[2]; [5]
  regrowth inhibition, addition of Compound 4 compared to ethephon, ethephon+AMADS or tribufos alone: dramatically increased
[2]; [4]
  inhibition of basal and terminal regrowth: effective for inhibiting both basal and terminal regrowth
[3]; 5 g a.i./ha, 4 DAA
  State of Defoliation (%): 13%
[3]; 5 g a.i./ha, 7 DAA
  State of Defoliation (%): 18%
[3]; 5 g a.i./ha, 14 DAA
  State of Defoliation (%): 23%
[3]; 10 g a.i./ha, 4 DAA
  State of Defoliation (%): 8%
[3]; 10 g a.i./ha, 7 DAA
  State of Defoliation (%): 18%
[3]; 10 g a.i./ha, 14 DAA
  State of Defoliation (%): 21%
[3]; 20 g a.i./ha, 4 DAA
  State of Defoliation (%): 13%
[3]; 20 g a.i./ha, 7 DAA
  State of Defoliation (%): 24%
[3]; 20 g a.i./ha, 14 DAA
  State of Defoliation (%): 23%
[3]; 336 h, 5 g a.i./ha, 14 DAA, read-out: Plant Stalk (Below 15.3-cm) Regrowth Inhibition (%)
  inhibition at 5 g/ha: 100%
[3]; 336 h, 5 g a.i./ha, 14 DAA, read-out: Plant Terminal (Top 15.3-cm) Regrowth Inhibition (%)
  inhibition at 5 g/ha: 100%
[3]; 336 h, 10 g a.i./ha, 14 DAA, read-out: Plant Stalk (Below 15.3-cm) Regrowth Inhibition (%)
  inhibition at 10 g/ha: 100%
[3]; 336 h, 10 g a.i./ha, 14 DAA, read-out: Plant Terminal (Top 15.3-cm) Regrowth Inhibition (%)
  inhibition at 10 g/ha: 100%
[3]; 336 h, 20 g a.i./ha, 14 DAA, read-out: Plant Stalk (Below 15.3-cm) Regrowth Inhibition (%)
  inhibition at 20 g/ha: 100%
[3]; 336 h, 20 g a.i./ha, 14 DAA, read-out: Plant Terminal (Top 15.3-cm) Regrowth Inhibition (%)
  inhibition at 20 g/ha: 100%
[3]; 528 h, 5 g a.i./ha, 22 DAA, read-out: Plant Stalk (Below 15.3-cm) Regrowth Inhibition (%)
  inhibition at 5 g/ha: 100%
[3]; 528 h, 10 g a.i./ha, 22 DAA, read-out: Plant Stalk (Below 15.3-cm) Regrowth Inhibition (%)
  inhibition at 10 g/ha: 100%
[3]; 528 h, 20 g a.i./ha, 22 DAA, read-out: Plant Stalk (Below 15.3-cm) Regrowth Inhibition (%)
  inhibition at 20 g/ha: 100%
[3]; [5]
  regrowth inhibition, addition of Compound 4 compared to ethephon, ethephon+AMADS or tribufos alone: dramatically increased
[3]; [4]
  inhibition of basal and terminal regrowth: effective for inhibiting both basal and terminal regrowth

## O=P(O)(O)CCCl [Ethephon, reference compound]
[2]; 1262 g a.i./ha, 4 DAA
  State of Defoliation (%): 58%
[2]; 1262 g a.i./ha, 7 DAA
  State of Defoliation (%): 63%
[2]; 1262 g a.i./ha, 14 DAA
  State of Defoliation (%): 48%
[2]; 1262 g a.i./ha, 14 DAA, read-out: Plant Stalk (Below 15.3-cm) Regrowth Inhibition (%)
  inhibition at 1262 g/ha: 80%
[2]; 1262 g a.i./ha, 14 DAA, read-out: Plant Terminal (Top 15.3-cm) Regrowth Inhibition (%)
  inhibition at 1262 g/ha: 60%
[3]; 1262 g a.i./ha, 4 DAA
  State of Defoliation (%): 54%
[3]; 1262 g a.i./ha, 7 DAA
  State of Defoliation (%): 73%
[3]; 1262 g a.i./ha, 14 DAA
  State of Defoliation (%): 79%
[3]; 336 h, 1262 g a.i./ha, 14 DAA, read-out: Plant Stalk (Below 15.3-cm) Regrowth Inhibition (%)
  inhibition at 1262 g/ha: 90%
[3]; 336 h, 1262 g a.i./ha, 14 DAA, read-out: Plant Terminal (Top 15.3-cm) Regrowth Inhibition (%)
  inhibition at 1262 g/ha: 75%
[3]; 528 h, 1262 g a.i./ha, 22 DAA, read-out: Plant Stalk (Below 15.3-cm) Regrowth Inhibition (%)
  inhibition at 1262 g/ha: 22%

## CCCCSP(=O)(SCCCC)SCCCC [Tribufos, S,S,S-tributylphosphorotrithioate, reference compound]
[1]; 4 DAA
  Boll Opening (%): 70%
  Desiccation (%): 32%
  State of Defoliation (%): 68%
[1]; 11 DAA
  Boll Opening (%): 78%
  Desiccation (%): 8%
  State of Defoliation (%): 80%
[1]; 21 DAA
  State of Defoliation (%): 35%
[1]; Gossypium hirsutum, 504 h, read-out: Regrowth Inhibition (%)
  inhibition at 841 g/ha: 25%
[2]; 421 g a.i./ha, 4 DAA
  State of Defoliation (%): 50%
[2]; 421 g a.i./ha, 7 DAA
  State of Defoliation (%): 56%
[2]; 421 g a.i./ha, 14 DAA
  State of Defoliation (%): 53%
[2]; read-out: Plant Stalk (Below 15.3-cm) Regrowth Inhibition (%)
  inhibition at 421 g/ha: 81%
[2]; read-out: Plant Terminal (Top 15.3-cm) Regrowth Inhibition (%)
  inhibition at 421 g/ha: 44%
[3]; 421 g a.i./ha, 4 DAA
  State of Defoliation (%): 49%
[3]; 421 g a.i./ha, 7 DAA
  State of Defoliation (%): 76%
[3]; 421 g a.i./ha, 14 DAA
  State of Defoliation (%): 81%
[3]; 336 h, read-out: Plant Stalk (Below 15.3-cm) Regrowth Inhibition (%)
  inhibition at 421 g/ha: 84%
[3]; 336 h, read-out: Plant Terminal (Top 15.3-cm) Regrowth Inhibition (%)
  inhibition at 421 g/ha: 47%
[3]; 528 h, read-out: Plant Stalk (Below 15.3-cm) Regrowth Inhibition (%)
  inhibition at 421 g/ha: 29%
